Assay results from ChEMBL document CHEMBL1201862, “PubChem BioAssay data set” (2004).
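A five-concentration, 48-hour dose response in 96-well plates underlies each endpoint, interpolated linearly between surrounding concentrations. GI50 = concentration required for 50% inhibition of growth.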 The source made the active and inactive calls. No stated cut-off is given here; in the data, active = GI50 up to about 1.1 µM and inactive = higher.

Key:
Experiment in all cases: NCI tumour cell line growth inhibition, 48 h
RXF 393 = test system: RXF 393
MDA-N = test system: MDA-N
RPMI-8226 = test system: RPMI-8226
NCI-H522 = test system: NCI-H522
A549 = test system: A549
MDA-MB-231 = test system: MDA-MB-231
SNB-19 = test system: SNB-19
UACC-62 = test system: UACC-62
KM12 = test system: KM12
786-0 = test system: 786-0
M14 = test system: M14
HL-60 = test system: HL-60
ACHN = test system: ACHN
IGROV-1 = test system: IGROV-1
SF-268 = test system: SF-268
SF-539 = test system: SF-539
A498 = test system: A498
NCI/ADR-RES = test system: NCI/ADR-RES
UO-31 = test system: UO-31

SMILES | GI50 (RXF 393) | GI50 (MDA-N) | GI50 (RPMI-8226) | GI50 (NCI-H522) | GI50 (A549) | GI50 (MDA-MB-231) | GI50 (SNB-19) | GI50 (UACC-62) | GI50 (KM12) | GI50 (786-0) | GI50 (M14) | GI50 (HL-60) | GI50 (ACHN) | GI50 (IGROV-1) | GI50 (SF-268) | GI50 (SF-539) | GI50 (A498) | GI50 (NCI/ADR-RES) | GI50 (UO-31)
COc1c2c(cc3oc(C)cc(=O)c13)OC(=N)C(C(N)=O)C2CC(=O)c1ccc(N)cc1 (stereo not drawn) | > 100 µM (inactive) | > 100 µM (inactive) | > 100 µM (inactive) | > 100 µM (inactive) | > 100 µM (inactive) | > 100 µM (inactive) | > 100 µM (inactive) | > 100 µM (inactive) | > 100 µM (inactive) | > 100 µM (inactive) | > 100 µM (inactive) | > 100 µM (inactive) | > 100 µM (inactive) | > 100 µM (inactive) | > 100 µM (inactive) | > 100 µM (inactive) | > 100 µM (inactive) | > 100 µM (inactive) | > 100 µM (inactive)
Nc1onc2c1Cc1c(noc1N)-c1ccccc1-2 | 58.1 µM (inactive) | 48.9 µM (inactive) | 53.7 µM (inactive) | 27.4 µM (inactive) | 71 µM (inactive) | 35.1 µM (inactive) | > 100 µM (inactive) | 27.4 µM (inactive) | 49.8 µM (inactive) | 79.3 µM (inactive) | 84.3 µM (inactive) | 19.8 µM (inactive) | 35.4 µM (inactive) | 54.5 µM (inactive) | 54 µM (inactive) | 96.8 µM (inactive) | 26.7 µM (inactive) | > 100 µM (inactive) | 53.6 µM (inactive)
CC(C)C(NC(=O)C(Cc1ccccc1)NC(=O)[C@H]1CCC[C@H]1NC(=O)C(Cc1ccc(OC(C)(C)C)cc1)NC(=O)OC(C)(C)C)C(N)=O (stereo partly drawn) | 81.1 µM (inactive) | 18.3 µM (inactive) | 36.5 µM (inactive) | 14.9 µM (inactive) | 20.1 µM (inactive) | 20.7 µM (inactive) | – | 13.8 µM (inactive) | 21.9 µM (inactive) | 60.1 µM (inactive) | 18 µM (inactive) | 34.8 µM (inactive) | 45.7 µM (inactive) | 31.3 µM (inactive) | 23.1 µM (inactive) | 16.5 µM (inactive) | 10.7 µM (inactive) | > 100 µM (inactive) | 47.4 µM (inactive)
CSCCC(NC(=O)Cc1ccc(C(=O)c2ccccc2)cc1)C(=O)O (stereo not drawn) | > 100 µM (inactive) | > 100 µM (inactive) | – | > 100 µM (inactive) | > 100 µM (inactive) | > 100 µM (inactive) | > 100 µM (inactive) | > 100 µM (inactive) | > 100 µM (inactive) | > 100 µM (inactive) | > 100 µM (inactive) | > 100 µM (inactive) | > 100 µM (inactive) | > 100 µM (inactive) | > 100 µM (inactive) | > 100 µM (inactive) | > 100 µM (inactive) | > 100 µM (inactive) | > 100 µM (inactive)
CC(C)(C(=O)N(C(=O)N1CCN(c2ccccc2)CC1)S(=O)(=O)c1ccccc1)c1ccc(Cl)cc1 | > 100 µM (inactive) | 41.5 µM (inactive) | 6.95 µM (inactive) | 4.32 µM (inactive) | 33.7 µM (inactive) | 31.7 µM (inactive) | 20.5 µM (inactive) | 40.6 µM (inactive) | 19.3 µM (inactive) | 55.2 µM (inactive) | 31.3 µM (inactive) | 24.8 µM (inactive) | 19.5 µM (inactive) | – | 34.4 µM (inactive) | 61.8 µM (inactive) | 18.6 µM (inactive) | 6.92 µM (inactive) | 15.3 µM (inactive)
Cc1nc(O)nc2nc3ccc(Cl)cc3c(NC(C)(CO)CO)c12 | 20.1 µM (inactive) | 99.1 µM (inactive) | 30.8 µM (inactive) | 24.2 µM (inactive) | > 34.4 µM (inactive) | 31.6 µM (inactive) | 45.2 µM (inactive) | > 75.3 µM (inactive) | > 100 µM (inactive) | > 57.4 µM (inactive) | > 100 µM (inactive) | > 100 µM (inactive) | 39 µM (inactive) | 49.9 µM (inactive) | 40.6 µM (inactive) | > 50.6 µM (inactive) | > 100 µM (inactive) | > 100 µM (inactive) | 4.49 µM (inactive)
C=C(Cl)C(C)(Cl)CCC(Cl)C(C)C (stereo not drawn) | > 100 µM (inactive) | 43.2 µM (inactive) | 48.6 µM (inactive) | 37 µM (inactive) | > 100 µM (inactive) | > 100 µM (inactive) | > 100 µM (inactive) | > 100 µM (inactive) | > 100 µM (inactive) | > 100 µM (inactive) | 57.7 µM (inactive) | 44.3 µM (inactive) | > 100 µM (inactive) | > 100 µM (inactive) | > 100 µM (inactive) | > 100 µM (inactive) | > 100 µM (inactive) | > 100 µM (inactive) | > 100 µM (inactive)
COc1ccc(N2C(=O)C3c4[nH]c5ccc(OC)cc5c4C4CCC(c5ccccc5)CC4C3C2=O)cc1 (stereo not drawn) | 10.9 µM (inactive) | 18.4 µM (inactive) | 6.25 µM (inactive) | 7.89 µM (inactive) | 12.8 µM (inactive) | 7.05 µM (inactive) | 11.9 µM (inactive) | 15.1 µM (inactive) | 14.2 µM (inactive) | 2.12 µM (inactive) | 14.8 µM (inactive) | 11.5 µM (inactive) | 9.48 µM (inactive) | 16.1 µM (inactive) | 8.63 µM (inactive) | 2.09 µM (inactive) | 14.2 µM (inactive) | 12.6 µM (inactive) | 29.6 µM (inactive)
O=C(Nc1noc(-c2ccccc2)n1)c1ccccc1CNc1noc(-c2ccccc2)n1 | > 100 µM (inactive) | > 100 µM (inactive) | > 100 µM (inactive) | > 100 µM (inactive) | > 100 µM (inactive) | > 100 µM (inactive) | > 100 µM (inactive) | > 100 µM (inactive) | > 100 µM (inactive) | > 100 µM (inactive) | > 100 µM (inactive) | > 100 µM (inactive) | > 100 µM (inactive) | > 100 µM (inactive) | > 100 µM (inactive) | > 100 µM (inactive) | > 100 µM (inactive) | > 100 µM (inactive) | > 100 µM (inactive)
O=CNc1ccc2c(c1)C(=O)c1ccccc1-2 | 65.2 µM (inactive) | > 100 µM (inactive) | 61.4 µM (inactive) | 60.3 µM (inactive) | > 100 µM (inactive) | > 100 µM (inactive) | > 100 µM (inactive) | 49.9 µM (inactive) | 68.2 µM (inactive) | 42.9 µM (inactive) | > 100 µM (inactive) | 49.1 µM (inactive) | > 100 µM (inactive) | 44.1 µM (inactive) | 47.3 µM (inactive) | 75.5 µM (inactive) | 90.2 µM (inactive) | > 100 µM (inactive) | 47.3 µM (inactive)
c1c2c(cc3c1OCO3)-c1cc3ccc4c(c3c[n+]1CC2)OCO4 [COPTISINE CHLORIDE] | 1.99 µM (inactive) | 0.299 µM (active) | 0.711 µM (active) | 0.311 µM (active) | 4.44 µM (inactive) | 1.13 µM (inactive) | 1.22 µM (inactive) | 0.891 µM (active) | 0.925 µM (active) | 4.2 µM (inactive) | 1 µM (active) | 0.406 µM (active) | 2.5 µM (inactive) | 2.04 µM (inactive) | 2.36 µM (inactive) | 0.887 µM (active) | 4.73 µM (inactive) | 0.348 µM (active) | 0.857 µM (active)
Cc1ncc([N+](=O)[O-])n1CCNS(=O)(=O)CCCn1ncnc1[N+](=O)[O-] | > 100 µM (inactive) | > 100 µM (inactive) | > 100 µM (inactive) | > 100 µM (inactive) | > 100 µM (inactive) | > 100 µM (inactive) | – | > 100 µM (inactive) | > 100 µM (inactive) | > 100 µM (inactive) | > 100 µM (inactive) | > 100 µM (inactive) | > 100 µM (inactive) | > 100 µM (inactive) | > 100 µM (inactive) | > 100 µM (inactive) | > 100 µM (inactive) | > 100 µM (inactive) | > 100 µM (inactive)
O=C1c2ccccc2S(=O)(=O)c2cc(-c3nn[nH]n3)ccc21 [DOXANTRAZOLE] | > 100 µM (inactive) | > 100 µM (inactive) | – | > 100 µM (inactive) | > 100 µM (inactive) | > 100 µM (inactive) | > 100 µM (inactive) | > 100 µM (inactive) | > 100 µM (inactive) | > 100 µM (inactive) | > 100 µM (inactive) | > 100 µM (inactive) | > 100 µM (inactive) | > 95.3 µM (inactive) | > 100 µM (inactive) | > 100 µM (inactive) | > 100 µM (inactive) | > 100 µM (inactive) | > 100 µM (inactive)
Cc1nc2cc([N+](=O)[O-])ccc2c(NCCCN(C)C)c1C | 11.1 µM (inactive) | 14.8 µM (inactive) | 12.9 µM (inactive) | 3.61 µM (inactive) | 6.21 µM (inactive) | 3.34 µM (inactive) | – | 15.6 µM (inactive) | 6.05 µM (inactive) | 10.4 µM (inactive) | 13.8 µM (inactive) | 28.8 µM (inactive) | 20 µM (inactive) | 3.22 µM (inactive) | 20.3 µM (inactive) | 13.7 µM (inactive) | 14.9 µM (inactive) | 16.3 µM (inactive) | 14.7 µM (inactive)
CCOC1NC(=O)Oc2ccccc21 (stereo not drawn) | > 100 µM (inactive) | > 100 µM (inactive) | – | > 100 µM (inactive) | > 100 µM (inactive) | > 100 µM (inactive) | > 100 µM (inactive) | > 100 µM (inactive) | > 100 µM (inactive) | > 100 µM (inactive) | > 100 µM (inactive) | > 100 µM (inactive) | > 100 µM (inactive) | > 100 µM (inactive) | > 100 µM (inactive) | > 100 µM (inactive) | > 100 µM (inactive) | > 100 µM (inactive) | > 100 µM (inactive)
